This note sets out measurements from patent US20260116874A1, “HETEROAROMATIC INDOLESULFONAMIDES” (SEED Therapeutics, Inc., priority 2023, published 2026).

The nature of series [1]: Liver microsomes stability, human. The class given is in vitro ADME. On the procedure: (§1) A 100 μM test compound solution and PC solution (verapamil) was prepared by adding 2 μL of 10 mM stock solution in DMSO to 198 μL of 50% acetonitrile/50% water.
(§2) Two separate experiments were performed as follows:
(§3) a) With Cofactors (NADPH): 25 μL of 10 mM NADPH was added to the incubations. The final concentrations of microsomes and NADPH were 0.5 mg/mL and 1 mM, respectively.
(§4) b) Without Cofactors (NADPH): 25 μL of 100 mM Phosphate buffer was added to the incubations. The final concentration of microsomes was 0.5 mg/mL. The mixture was pre-warmed at 37° C. for 10 minutes.
(§5) The reaction was started with the addition of 2.5 μL of 100 µM control compound or test compound solutions. Verapamil was used as positive control in this study. The final concentration of test compound or control compound was 1 μM. The incubation solution was incubated in a water bath at 37° C.
(§6) Aliquots of 30 μL were taken from the reaction solution at 0.5, 15, 30, 45 and 60 minutes. The reaction was stopped by the addition of 5 volumes of cold acetonitrile with IS (100 nM alprazolam, 200 nM caffeine and 100 nM tolbutamide).
(§7) Samples were then centrifuged at 3,220 g for 40 minutes. An aliquot of 100 μL of the supernatant was mixed with 100 μL of ultra-pure H2O and then used for LC-MS/MS analysis.
(§8) Single dose PK parameters were also determined for Compound 143, a deuterated derivative of Compound 1, according to the methods described herein. […] Metabolic stability was assessed by measuring the half-life of the test compounds in human and mouse liver microsomes.

Series [2] can be described thus: Liver microsomes stability, mouse. The class given is in vitro ADME. On the procedure: as §1, §2, §3, §4, §5, §6, §7, §8
The nature of series [3]: Single dose plasma pharmacokinetics after IV and PO administration. The class given is in vivo, female BALB/c mice. The conditions noted are these: for AUC(0-t) / Cmax: female, BALB/c; for AUC(0-t) / Cmax / AUC(0-inf) / C0 / clearance / half-life / Vd / Tmax: mouse, plasma; for AUC(0-t) / Cmax / F / AUC(0-inf) / C0 / clearance / half-life / Vd / Tmax: female BALB/c mice; for F: PO 20 mg/kg vs IV 1 mg/kg; for Vd: read-out: Vss. How it is done:
Single dose PK parameters in plasma were determined following intravenous administration of compound 1 and comparative compound E7820 at 1 mg/kg by using the formulation of 10% DMSO/30% PEG400/60% Saline. The plasma samples were collected at the following time points: 0.083, 0.25, 0.5, 1, 2, 4, 8 and 24 hrs post-dose. The concentrations in plasma were determined.
Single dose PK parameters in plasma were determined following oral gavage of Compound 1 and comparative compound E7820 at 20 mg/kg by using the formulation of 0.5% MC (400 cps) and 0.1% Tween80 in water. The plasma samples were collected at the following time points: 0.25, 0.5, 1, 2, 4, 8 and 24 hrs post dose.
as §8

For series [4], the target named is human ether-a-go-go related gene (hERG) channel (Homo sapiens, UniProt Q12809). Kind of series: hERG inhibition assay (SyncroPatch automated patch clamp). On the procedure: Inhibition of compounds on human ether-a-go-go related gene (hERG) channel was evaluated using a SyncroPatch 3848/384 automated patch clamp system. The SynchroPatch system is an independent method of measuring ion flux through ion channel proteins by measuring currents induced by ion flux into and out of the cell.
CHO herg-DUO cells stably expressing hERG channel were cultured in a medium containing F12 (HAM) medium, 10% FBS, 100 μg/mL penicillin-streptomycin, […] hygromycin and 100 µg/mL G418. Cells were split using TrypLE™ Express about three times a week, and maintained at about 80% confluence.
Compounds were prepared as a 50 mM stock solution in DMSO. The stock solution of each compound was serially diluted with DMSO to prepare 30 mM, 10 mM, 3.3 mM and 1.1 mM solutions. Working solutions 60 μM, 20 μM, 6.6 μM and 2.22 μM were prepared by 500-fold dilution of the […], 30 mM, 10 mM, 3.3 mM and 1.1 mM solutions, respectively using extracellular NMDG60 solution (80 mM NaCl, 60 mM N-methyl-d-glucamine, 4 mM KCl, 2 mM CaCl2, 1 mM MgCl2, 5 mM D-glucose and 10 mM HEPES).
Cells were harvested and added to SyncroPatch 384 chip (Nanion Technologies) and washed four times. Following establishment of the whole-cell voltage clamp configuration, cells were set to a holding potential of −90 mV for measured for 500 ms and currents were at 500 Hz and filtered at 3 kHz. The hERG current was elicited by depolarizing the membrane to +30 mV for 4.8 sec and the voltage was then taken back to −50 mV for 5.2 sec to remove the inactivation and measure the deactivating tail current for a sample interval of 15 s. The maximum amount of tail current size was used to determine hERG current amplitude. hERG current in the presence of test compounds was recorded for at least 5 min to reach a steady state and then 5 sweeps were captured. If a steady state was not reached within 10 minutes, the average peak current of the last 5 sweeps was substituted for the steady state value.

[5] abbreviates: Table 6, read-out: Metabolic Stability Half-life, Human.
Setting [6] is: Table 6, read-out: Metabolic Stability Half-life, Mouse.
The mark [7] stands for this setting: po, 20 mg/kg, AUC(0-8 hr), oral administration, Table 7.
Setting [8] is: po, 20 mg/kg, oral administration, Table 7.
Where [9] appears, read: 1 μM, Table 3, read-out: Metabolic Stability Half-life, human.
Setting [10] is: 1 μM, Table 3, read-out: Metabolic Stability Half-life, mouse.
Where [11] appears, read: iv, 1 mg/kg, IV 1 mg/kg, read-out: AUC(0-t).
Where [12] appears, read: po, 20 mg/kg, PO 20 mg/kg, read-out: AUC(0-t).

The structures appear in SMILES notation. Read-outs that look alike come from different tables or passages of the source.

Sequence of human ether-a-go-go related gene (hERG) channel (Q12809 whole entry): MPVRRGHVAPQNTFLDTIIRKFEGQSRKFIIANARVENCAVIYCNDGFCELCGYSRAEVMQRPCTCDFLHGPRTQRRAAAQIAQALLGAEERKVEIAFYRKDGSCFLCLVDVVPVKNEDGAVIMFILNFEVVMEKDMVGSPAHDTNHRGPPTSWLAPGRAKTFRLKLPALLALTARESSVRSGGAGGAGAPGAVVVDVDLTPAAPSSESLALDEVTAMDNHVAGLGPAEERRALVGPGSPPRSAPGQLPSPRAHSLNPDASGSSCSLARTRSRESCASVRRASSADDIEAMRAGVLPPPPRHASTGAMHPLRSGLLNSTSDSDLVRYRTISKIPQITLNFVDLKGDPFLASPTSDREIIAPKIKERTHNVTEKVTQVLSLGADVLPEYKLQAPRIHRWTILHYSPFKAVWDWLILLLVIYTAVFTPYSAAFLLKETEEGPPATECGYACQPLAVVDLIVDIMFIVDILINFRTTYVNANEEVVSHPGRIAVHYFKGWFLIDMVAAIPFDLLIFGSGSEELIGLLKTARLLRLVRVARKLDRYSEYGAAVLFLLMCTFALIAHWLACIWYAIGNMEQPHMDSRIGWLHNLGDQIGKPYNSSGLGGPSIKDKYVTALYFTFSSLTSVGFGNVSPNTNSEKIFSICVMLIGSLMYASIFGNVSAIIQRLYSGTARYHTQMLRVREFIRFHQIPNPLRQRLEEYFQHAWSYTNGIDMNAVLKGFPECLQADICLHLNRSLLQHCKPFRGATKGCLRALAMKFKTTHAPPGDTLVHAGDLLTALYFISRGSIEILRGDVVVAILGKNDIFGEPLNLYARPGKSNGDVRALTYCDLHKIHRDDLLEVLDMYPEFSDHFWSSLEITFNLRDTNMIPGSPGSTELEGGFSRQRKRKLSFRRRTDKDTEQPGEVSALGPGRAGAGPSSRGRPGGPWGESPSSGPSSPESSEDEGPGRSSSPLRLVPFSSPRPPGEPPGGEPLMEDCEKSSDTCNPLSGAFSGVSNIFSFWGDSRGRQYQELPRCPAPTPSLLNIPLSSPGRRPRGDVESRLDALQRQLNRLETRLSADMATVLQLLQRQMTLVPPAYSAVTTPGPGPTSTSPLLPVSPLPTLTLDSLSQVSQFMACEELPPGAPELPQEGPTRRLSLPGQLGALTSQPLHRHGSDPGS

For the compound `[2H]C([2H])([2H])c1ncc(S(=O)(=O)Nc2ccc(C)c3c(C#N)c[nH]c23)s1` [Compound 143, N-(3-cyano-4-methyl-1H-indol-7-yl)-2-(methyl-d3)thiazole-5-sulfonamide], the half-life at 1 µM in series [1] (setting [5]) amounted to 93 min. The half-life at 1 µM in series [2] (setting [6]) was 67 min. The same compound had an AUC(0-t) in series [3] (setting [7]) of 107000 ng·h/mL. The same compound registered a Cmax in series [3] (setting [8]) of 19300 ng/mL. In series [3] (oral administration, compared to Compound 1, in words), the “plasma AUC compared to Compound 1” value is reported as “increase”. Moreover, in series [4], the IC50 is greater than 50 µM and the “hERG inhibition compared to E7820” value was “less inhibition”.
On to `Cc1ncc(S(=O)(=O)Nc2ccc(C)c3c(C#N)c[nH]c23)s1` [Compound 1, N-(3-cyano-4-methyl-1H-indol-7-yl)-2-methyl-thiazole-5-sulfonamide], for which the half-life at 1 µM in series [1] (setting [9]) was found to be 66.2 min; in series [1] (setting [5]), 66 min; in series [2] (setting [10]) it was 47.1 min; in series [2] (setting [6]), 47 min. In series [3], this compound showed an F of 407%. Further, the AUC(0-t) in series [3] (setting [11]) amounted to 1860 ng·h/mL; in series [3] (setting [7]) it was 62300 ng·h/mL; in series [3] (setting [12]), 151000 ng·h/mL. In addition, the Cmax stood at 25900 ng/mL in series [3] (po, 20 mg/kg, PO 20 mg/kg) and 9850 ng/mL in series [3] (setting [8]). Further, the figures for the total exposure AUC(0-inf) in series [3] (IV 1 mg/kg) and in series [3] (PO 20 mg/kg) were 1860 ng·h/mL and 190000 ng·h/mL, respectively. The compound further had a C0 in series [3] (IV 1 mg/kg) of 6060 ng/mL. Also, in series [3] (IV 1 mg/kg), the clearance was 9.4 mL/min/kg. Besides, the half-life in series [3] (IV 1 mg/kg) is 40.2 min; in series [3] (PO 20 mg/kg), 151 min. Further, in series [3] (IV 1 mg/kg), the Vd is 0.201 L/kg. Moreover, the Tmax in series [3] (PO 20 mg/kg) stood at 140 min. The “increase in plasma AUC compared to E7820” value in series [3] (oral administration, compared to control compound E7820) was “greater than 2 fold”. In addition, in series [4], the IC50 is greater than 50 µM. The “hERG inhibition compared to E7820” value in series [4] is recorded as “less inhibition”.
For the compound `Cc1ccc(NS(=O)(=O)c2cccc(C#N)c2)c2[nH]cc(C#N)c12` [Compound E7820, E7820, reference compound], in series [1] (setting [9]), the half-life at 1 µM is 50.7 min. For the same compound, the half-life at 1 µM in series [1] (setting [5]) was 51 min. In series [2] (setting [10]), the half-life at 1 µM turned out to be 28.7 min. In addition, the half-life at 1 µM in series [2] (setting [6]) was found to be 29 min. Moreover, in series [3], the F is 202%. The AUC(0-t) in series [3] (setting [11]) came out at 1640 ng·h/mL. The highest level in series [3] (po, 20 mg/kg, PO 20 mg/kg) (Cmax) was 11500 ng/mL. For the same compound, the AUC(0-t) in series [3] (setting [12]) was 66200 ng·h/mL. In series [3] (IV 1 mg/kg), this compound showed an AUC(0-inf) of 1650 ng·h/mL, a C0 of 3150 ng/mL, a clearance of 10.2 mL/min/kg and a half-life of 32.5 min. For the same compound, the Vd in series [3] (IV 1 mg/kg) was found to be 0.393 L/kg. Besides, the Tmax in series [3] (PO 20 mg/kg) is 160 min. 48.4 µM corresponded to half-maximal inhibition in series [4] (IC50).
